# In patent US12139472B2, “Inhibitors of advanced glycation end products” (priority 2019, dated 2024):
# Assay: Pharmacokinetic study for PTG-630 (IV and PO): plasma, whole blood, tissues, urine
# Type: in vivo, Sprague Dawley rats
# Protocol: The samples were analyzed in two batches with standards and QCs prepared on rat plasma and rat urine. Analyst® 1.6 (SCIEX) software was used for statistical analysis of bioanalytical data. […] Dose samples collected at 0.083 h-6 h postdose were diluted 4 times with SD rat plasma prior to plating. Twenty-four (24) hours plasma samples were assayed without dilution. […] Two sciatic nerve samples were excluded from analysis, due to the insufficient sample size. […] The 12 non-cannulated animals were arbitrarily assigned to groups upon arrival and housed together throughout the experiment. The animals were acclimated to their designated housing for at least 24 hours before the first day of dosing. […] Blood samples were collected via cannula from IV dosed rats or by cardiac stick from PO dosed rats at the specified time points for sampling pharmacokinetics. Blood was collected into K2EDTA tubes. Tubes were mixed gently after blood collection, chilled and centrifuged at 3000 rpm, 4° C. within 30 minutes upon collection. The samples were centrifuged at 4° C. and the resultant plasma separated. […] Urine from Group 1 was collected via polycarbonate tubes from rats placed in drug metabolism cages. Urine was maintained and room temperature through the collection period.
# [1] = PTG-4997 in kidneys after PTG-630 PO
compound,measurement,setting,value
Cc1ncc(CO)c(-c2ncc[nH]2)c1O [PTG-4997],MRT,[1],11.6 h
same,Tmax,[1],6 h
same,half-life,[1],2.36 h
same,PTG-4997 (metabolite) concentration,"Table 2, for PTG-4997 (metabolite) after PTG-630 IV 5 mg/kg, plasma, 0.083 h postdose, individual animals",<BLQ
same,PTG-4997 (metabolite) concentration,"Table 2, for PTG-4997 (metabolite) after PTG-630 IV 5 mg/kg, plasma, 0.5 h postdose, individual animals, 5 mg/kg",<BLQ
same,PTG-4997 (metabolite) concentration,"Table 2, for PTG-4997 (metabolite) after PTG-630 IV 5 mg/kg, plasma, 1 h postdose, individual animals",<BLQ
same,PTG-4997 (metabolite) concentration,"Table 2, for PTG-4997 (metabolite) after PTG-630 IV 5 mg/kg, plasma, 24 h postdose, individual animals",<BLQ
same,PTG-4997 (metabolite) concentration,"Table 2, for PTG-4997 (metabolite) after PTG-630 PO 100 mg/kg, brain, 0.5 h postdose, Mean",<BLQ
same,PTG-4997 (metabolite) concentration,"Table 2, for PTG-4997 (metabolite) after PTG-630 PO 100 mg/kg, brain, 0.5 h postdose, individual animals",<BLQ
same,PTG-4997 (metabolite) concentration,"Table 2, for PTG-4997 (metabolite) after PTG-630 PO 100 mg/kg, brain, 1 h postdose, Mean",<BLQ
same,PTG-4997 (metabolite) concentration,"Table 2, for PTG-4997 (metabolite) after PTG-630 PO 100 mg/kg, brain, 1 h postdose, individual animals",<BLQ
same,PTG-4997 (metabolite) concentration,"Table 2, for PTG-4997 (metabolite) after PTG-630 PO 100 mg/kg, brain, 2 h postdose, Mean",<BLQ
same,PTG-4997 (metabolite) concentration,"Table 2, for PTG-4997 (metabolite) after PTG-630 PO 100 mg/kg, brain, 2 h postdose, individual animals",<BLQ
same,PTG-4997 (metabolite) concentration,"Table 2, for PTG-4997 (metabolite) after PTG-630 PO 100 mg/kg, brain, 4 h postdose, Mean",<BLQ
same,PTG-4997 (metabolite) concentration,"Table 2, for PTG-4997 (metabolite) after PTG-630 PO 100 mg/kg, brain, 4 h postdose, individual animals",<BLQ
same,PTG-4997 (metabolite) concentration,"Table 2, for PTG-4997 (metabolite) after PTG-630 PO 100 mg/kg, brain, 6 h postdose, Mean",<BLQ
same,PTG-4997 (metabolite) concentration,"Table 2, for PTG-4997 (metabolite) after PTG-630 PO 100 mg/kg, brain, 6 h postdose, individual animals",<BLQ
same,PTG-4997 (metabolite) concentration,"Table 2, for PTG-4997 (metabolite) after PTG-630 PO 100 mg/kg, brain, 24 h postdose, Mean",<BLQ
same,PTG-4997 (metabolite) concentration,"Table 2, for PTG-4997 (metabolite) after PTG-630 PO 100 mg/kg, brain, 24 h postdose, individual animals",<BLQ
same,PTG-4997 (metabolite) concentration,"Table 2, for PTG-4997 (metabolite) after PTG-630 PO 100 mg/kg, kidney, 0.5 h postdose, Mean",86.5 ng/mL
same,PTG-4997 (metabolite) concentration,"Table 2, for PTG-4997 (metabolite) after PTG-630 PO 100 mg/kg, kidney, 1 h postdose, Mean",0 ng/mL
same,PTG-4997 (metabolite) concentration,"Table 2, for PTG-4997 (metabolite) after PTG-630 PO 100 mg/kg, kidney, 2 h postdose, Mean",81 ng/mL
same,PTG-4997 (metabolite) concentration,"Table 2, for PTG-4997 (metabolite) after PTG-630 PO 100 mg/kg, kidney, 4 h postdose, Mean",128 ng/mL
same,PTG-4997 (metabolite) concentration,"Table 2, for PTG-4997 (metabolite) after PTG-630 PO 100 mg/kg, kidney, 6 h postdose, Mean",182.5 ng/mL
same,PTG-4997 (metabolite) concentration,"Table 2, for PTG-4997 (metabolite) after PTG-630 PO 100 mg/kg, kidney, 24 h postdose, Mean",106 ng/mL
same,PTG-4997 (metabolite) concentration,"Table 2, for PTG-4997 (metabolite) after PTG-630 PO 100 mg/kg, liver, 0.5 h postdose, Mean",<BLQ
same,PTG-4997 (metabolite) concentration,"Table 2, for PTG-4997 (metabolite) after PTG-630 PO 100 mg/kg, liver, 0.5 h postdose, individual animals",<BLQ
same,PTG-4997 (metabolite) concentration,"Table 2, for PTG-4997 (metabolite) after PTG-630 PO 100 mg/kg, liver, 1 h postdose, Mean",<BLQ
same,PTG-4997 (metabolite) concentration,"Table 2, for PTG-4997 (metabolite) after PTG-630 PO 100 mg/kg, liver, 1 h postdose, individual animals",<BLQ
same,PTG-4997 (metabolite) concentration,"Table 2, for PTG-4997 (metabolite) after PTG-630 PO 100 mg/kg, liver, 2 h postdose, Mean",<BLQ
same,PTG-4997 (metabolite) concentration,"Table 2, for PTG-4997 (metabolite) after PTG-630 PO 100 mg/kg, liver, 2 h postdose, individual animals",<BLQ
same,PTG-4997 (metabolite) concentration,"Table 2, for PTG-4997 (metabolite) after PTG-630 PO 100 mg/kg, liver, 4 h postdose, Mean",<BLQ
same,PTG-4997 (metabolite) concentration,"Table 2, for PTG-4997 (metabolite) after PTG-630 PO 100 mg/kg, liver, 4 h postdose, individual animals",<BLQ
same,PTG-4997 (metabolite) concentration,"Table 2, for PTG-4997 (metabolite) after PTG-630 PO 100 mg/kg, liver, 6 h postdose, Mean",<BLQ
same,PTG-4997 (metabolite) concentration,"Table 2, for PTG-4997 (metabolite) after PTG-630 PO 100 mg/kg, liver, 6 h postdose, individual animals",<BLQ
same,PTG-4997 (metabolite) concentration,"Table 2, for PTG-4997 (metabolite) after PTG-630 PO 100 mg/kg, liver, 24 h postdose, Mean",<BLQ
same,PTG-4997 (metabolite) concentration,"Table 2, for PTG-4997 (metabolite) after PTG-630 PO 100 mg/kg, liver, 24 h postdose, individual animals",<BLQ
same,PTG-4997 (metabolite) concentration,"Table 2, for PTG-4997 (metabolite) after PTG-630 PO 100 mg/kg, muscle, 0.5 h postdose, Mean",<BLQ
same,PTG-4997 (metabolite) concentration,"Table 2, for PTG-4997 (metabolite) after PTG-630 PO 100 mg/kg, muscle, 0.5 h postdose, individual animals",<BLQ
same,PTG-4997 (metabolite) concentration,"Table 2, for PTG-4997 (metabolite) after PTG-630 PO 100 mg/kg, muscle, 1 h postdose, Mean",<BLQ
same,PTG-4997 (metabolite) concentration,"Table 2, for PTG-4997 (metabolite) after PTG-630 PO 100 mg/kg, muscle, 1 h postdose, individual animals",<BLQ
